{"source": "paper PMC5522996", "about": "“Big conductance calcium‐activated potassium channel openers control spasticity without sedation” (British Journal of Pharmacology, 2017)", "key": {"[1]": {"system": "mouse vas deferens", "assay": "βγ‐methylene ATP‐induced contraction of electrically unstimulated vas deferens", "type": "cell-based", "details": "100 nM, 30 min before βγ‐methylene ATP"}, "[2]": {"assay": "Stability in pooled mouse liver microsomes", "type": "in vitro ADME", "details": "pooled mouse liver microsomes, 37°C, upper limit 100 min, read-out: t ½ in liver microsomes", "procedure": "(§1) The stability of compounds when subjected to hepatic and plasma degradation was assessed in vitro by Inpharmatica, Cambridge, UK. Compounds (1 μM) were incubated with either pooled mouse liver microsomes (0.1 mg protein mL^−1) or pooled mouse plasma at 37°C for 0, 5, 10, 20 and 40 min before termination with acetonitrile containing warfarin as an analytical internal standard. Samples were centrifuged, and the resultant supernatant analysed for parent compound. The mass responses at baseline were taken as the 100% reference values against which the disappearance of the compound was measured. The natural log of the % remaining values was used to generate linear plots of disappearance of the compounds. Half‐life values were calculated from the slope of these plots. Hepatocyte metabolism was assessed by Cyprotex, Macclesfield, and 10 μM VSN16R was incubated with primary mouse, rat, monkey (Macaque) and human hepatocytes for 1 h, and the presence of metabolites was assessed using liquid […] mass spectroscopy. The stability of VSN16R was assessed in vivo by Inpharmatica, Cyprotex and Charles Rivers, Cambridge. Blood (plasma) samples were obtained prior to and 5 min to 24 h after drug administration of 2–5 mg·kg^−1 i.v. or 5 mg·kg^−1 p.o. VSN16R into outbred mice and rats (n = 3 per time point). […] Data are expressed as mean ± SEM. […]"}, "[3]": {"assay": "Plasma levels in toxicological studies, rats", "type": "in vivo", "details": "both sexes, Sprague Dawley, rat, po; for concentration at 30 min: 30 min following 50 mg·kg^−1 p.o.", "procedure": "Twenty‐eight day toxicology in rats and dogs for Investigational New Drug filing was performed by Charles Rivers (UK). Reproductive toxicology in rabbits was performed by Charles Rivers (Canada). Pharmacokinetic and/or toxicological doses ranged from 5 to 1000 mg·kg^−1 p.o. in Sprague Dawley male and female rats (n = 6‐26 per group), 50–200 mg·kg^−1 p.o. in male and female Beagle dogs (n = 6 per group) and 100–750 mg·kg^−1 p.o. in female New Zealand white rabbits (n = 9 per group). Results are expressed as mean ± SD.\nas §1, with “point). In addition, plasma, brain and spinal cord samples were obtained from ABH with spastic EAE. Immediately after blood collection, the brain and spinal cord were removed and then stored at −20°C prior to assay.” for “point).”"}, "[4]": {"biological_target": "T1, CYP450 2C8 (Homo sapiens, UniProt P10632)", "T1 construct": "host or cells: BTI NN-5B1-4 or Sf9 insect cells", "T1 sequence (P10632 whole entry)": "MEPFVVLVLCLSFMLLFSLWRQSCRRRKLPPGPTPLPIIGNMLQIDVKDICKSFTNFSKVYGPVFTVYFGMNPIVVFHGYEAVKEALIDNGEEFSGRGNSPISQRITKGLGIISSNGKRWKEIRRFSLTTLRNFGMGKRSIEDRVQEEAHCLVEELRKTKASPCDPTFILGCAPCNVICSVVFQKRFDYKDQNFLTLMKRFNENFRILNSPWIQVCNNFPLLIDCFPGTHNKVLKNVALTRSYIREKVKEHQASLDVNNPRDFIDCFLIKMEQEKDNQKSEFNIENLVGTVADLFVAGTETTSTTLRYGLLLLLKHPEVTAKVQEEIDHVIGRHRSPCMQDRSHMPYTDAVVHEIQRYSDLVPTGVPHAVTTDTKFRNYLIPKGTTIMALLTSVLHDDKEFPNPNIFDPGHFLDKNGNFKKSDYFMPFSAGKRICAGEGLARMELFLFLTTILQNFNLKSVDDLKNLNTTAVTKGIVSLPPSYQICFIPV", "assay": "CYP450 inhibition of substrate binding", "type": "in vitro ADME", "details": "read-out: IC50 Inhibition of substrate binding, VSN16R", "from_the_text": "(§2) Inhibition of binding of either 3-cyano-7-ethoxycoumarin, dibenzylfluorescein or 7-benzyoxy-4-\n(§3) (trifluoromethyl) coumarin in human enzyme transfected BTI NN-5B1-4 cells or Sf9 insect cells or\n(§4) inhibition of dextromethorphan substrate to CYP450 2D6 in liver microsomes."}, "[5]": {"biological_target": "T2, CYP450 2C9 (Homo sapiens, UniProt P11712)", "T2 construct": "host or cells: BTI NN-5B1-4 or Sf9 insect cells", "T2 sequence (P11712 whole entry)": "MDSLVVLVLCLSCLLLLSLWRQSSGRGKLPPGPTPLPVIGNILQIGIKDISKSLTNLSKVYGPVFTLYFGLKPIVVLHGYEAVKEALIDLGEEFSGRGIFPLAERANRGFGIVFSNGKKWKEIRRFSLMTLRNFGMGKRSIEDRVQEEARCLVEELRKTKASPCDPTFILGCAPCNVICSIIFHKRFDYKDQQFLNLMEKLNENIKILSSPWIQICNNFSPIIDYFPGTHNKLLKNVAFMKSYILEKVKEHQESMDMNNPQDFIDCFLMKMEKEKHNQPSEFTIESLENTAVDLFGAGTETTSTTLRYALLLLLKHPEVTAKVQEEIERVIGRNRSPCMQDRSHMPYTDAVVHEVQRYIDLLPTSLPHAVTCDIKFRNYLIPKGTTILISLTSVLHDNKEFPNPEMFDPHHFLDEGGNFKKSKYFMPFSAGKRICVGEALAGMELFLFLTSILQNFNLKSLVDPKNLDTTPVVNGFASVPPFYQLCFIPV", "assay": "CYP450 inhibition of substrate binding", "type": "in vitro ADME", "details": "read-out: IC50 Inhibition of substrate binding, VSN16R", "from_the_text": "as §2, §3, §4"}, "[6]": {"system": "α2(non-selective)", "assay": "Receptor binding profile of VSN16R", "parameters": "species or system human", "details": "10µM VSN16R"}, "[7]": {"system": "BZD", "assay": "Receptor binding profile of VSN16R", "parameters": "species or system human", "details": "10µM VSN16R"}, "[8]": {"system": "β2", "assay": "Receptor binding profile of VSN16R", "parameters": "species or system human", "details": "10µM VSN16R"}, "[9]": {"biological_target": "T3, D2S (Homo sapiens, UniProt P14416)", "T3 construct": "purchased Cerep; Chantest; DiscoveRx; Multispan; MDS Pharma Services", "T3 sequence (P14416 1-414 isoform P14416-2)": "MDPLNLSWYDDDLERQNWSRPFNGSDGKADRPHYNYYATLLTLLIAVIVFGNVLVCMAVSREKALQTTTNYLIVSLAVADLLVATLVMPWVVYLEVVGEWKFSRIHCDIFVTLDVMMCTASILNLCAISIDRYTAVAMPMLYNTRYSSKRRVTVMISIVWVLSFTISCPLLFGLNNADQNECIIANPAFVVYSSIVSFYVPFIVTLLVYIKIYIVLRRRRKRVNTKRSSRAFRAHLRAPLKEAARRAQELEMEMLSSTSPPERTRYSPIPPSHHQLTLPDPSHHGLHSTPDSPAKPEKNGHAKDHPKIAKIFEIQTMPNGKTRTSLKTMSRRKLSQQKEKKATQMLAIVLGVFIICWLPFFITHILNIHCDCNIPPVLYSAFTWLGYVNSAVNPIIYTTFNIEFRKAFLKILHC", "assay": "Receptor binding profile of VSN16R", "details": "10µM VSN16R"}, "[10]": {"biological_target": "T4, H2 (Homo sapiens, UniProt P25021)", "T4 construct": "purchased Cerep; Chantest; DiscoveRx; Multispan; MDS Pharma Services", "T4 sequence (P25021 whole entry)": "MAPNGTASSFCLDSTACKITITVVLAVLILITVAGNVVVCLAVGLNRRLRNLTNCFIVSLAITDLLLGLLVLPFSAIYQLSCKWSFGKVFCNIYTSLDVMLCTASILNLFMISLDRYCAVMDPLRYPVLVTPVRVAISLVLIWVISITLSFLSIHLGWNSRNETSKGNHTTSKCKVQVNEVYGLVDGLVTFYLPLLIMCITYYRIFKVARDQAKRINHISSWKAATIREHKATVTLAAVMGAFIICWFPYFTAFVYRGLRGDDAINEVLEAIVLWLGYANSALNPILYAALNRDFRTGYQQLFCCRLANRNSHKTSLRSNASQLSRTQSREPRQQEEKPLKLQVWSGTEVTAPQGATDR", "assay": "Receptor binding profile of VSN16R", "details": "10µM VSN16R"}, "[11]": {"system": "ML1", "assay": "Receptor binding profile of VSN16R", "parameters": "species or system human", "details": "10µM VSN16R"}, "[12]": {"biological_target": "T5, NT1 (Homo sapiens, UniProt P30989)", "T5 construct": "purchased Cerep; Chantest; DiscoveRx; Multispan; MDS Pharma Services", "T5 sequence (P30989 whole entry)": "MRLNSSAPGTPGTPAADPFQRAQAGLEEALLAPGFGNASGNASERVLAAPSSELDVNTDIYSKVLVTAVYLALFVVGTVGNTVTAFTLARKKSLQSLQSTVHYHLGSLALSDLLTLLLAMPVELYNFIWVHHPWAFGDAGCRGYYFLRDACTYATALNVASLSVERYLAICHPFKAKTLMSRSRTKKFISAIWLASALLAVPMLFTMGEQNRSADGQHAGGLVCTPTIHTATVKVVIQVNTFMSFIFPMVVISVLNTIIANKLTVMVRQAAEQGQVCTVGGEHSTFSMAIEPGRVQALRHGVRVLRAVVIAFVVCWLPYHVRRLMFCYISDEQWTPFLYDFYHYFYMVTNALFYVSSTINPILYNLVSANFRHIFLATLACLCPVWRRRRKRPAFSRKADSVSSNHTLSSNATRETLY", "assay": "Receptor binding profile of VSN16R", "details": "10µM VSN16R"}, "[13]": {"biological_target": "T6, δ2 (Homo sapiens, UniProt P41143)", "T6 construct": "purchased Cerep; Chantest; DiscoveRx; Multispan; MDS Pharma Services", "assay": "Receptor binding profile of VSN16R", "details": "10µM VSN16R"}, "[14]": {"biological_target": "T7, 5-HT6 (Homo sapiens, UniProt P50406)", "T7 construct": "purchased Cerep; Chantest; DiscoveRx; Multispan; MDS Pharma Services", "T7 sequence (P50406 whole entry)": "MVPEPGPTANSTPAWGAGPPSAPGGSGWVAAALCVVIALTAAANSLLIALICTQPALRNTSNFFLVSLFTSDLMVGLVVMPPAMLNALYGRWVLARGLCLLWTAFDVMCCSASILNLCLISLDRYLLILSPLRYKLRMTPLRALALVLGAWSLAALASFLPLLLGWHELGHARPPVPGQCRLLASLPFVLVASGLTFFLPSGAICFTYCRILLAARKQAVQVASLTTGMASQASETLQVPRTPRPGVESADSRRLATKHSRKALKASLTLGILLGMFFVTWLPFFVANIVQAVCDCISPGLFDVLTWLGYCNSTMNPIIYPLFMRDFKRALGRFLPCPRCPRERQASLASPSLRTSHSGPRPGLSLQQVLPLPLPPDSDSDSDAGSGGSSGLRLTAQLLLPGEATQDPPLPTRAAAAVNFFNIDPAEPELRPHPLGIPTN", "assay": "Receptor binding profile of VSN16R", "details": "10µM VSN16R"}, "[15]": {"biological_target": "T8, VIP1 (Homo sapiens, UniProt P32241)", "T8 construct": "purchased Cerep; Chantest; DiscoveRx; Multispan; MDS Pharma Services", "T8 sequence (P32241 31-457)": "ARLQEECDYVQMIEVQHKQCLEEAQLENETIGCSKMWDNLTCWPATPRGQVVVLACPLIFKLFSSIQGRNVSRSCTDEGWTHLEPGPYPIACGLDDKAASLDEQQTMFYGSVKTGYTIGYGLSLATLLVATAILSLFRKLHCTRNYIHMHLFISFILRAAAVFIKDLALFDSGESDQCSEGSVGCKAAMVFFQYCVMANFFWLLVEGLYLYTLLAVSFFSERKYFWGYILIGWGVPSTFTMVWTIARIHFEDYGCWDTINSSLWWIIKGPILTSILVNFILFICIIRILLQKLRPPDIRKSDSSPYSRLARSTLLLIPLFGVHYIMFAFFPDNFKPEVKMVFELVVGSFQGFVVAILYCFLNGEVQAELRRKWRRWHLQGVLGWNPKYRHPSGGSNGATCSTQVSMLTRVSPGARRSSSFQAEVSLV", "assay": "Receptor binding profile of VSN16R", "details": "10µM VSN16R"}, "[16]": {"biological_target": "T9, V1a (Homo sapiens, UniProt P37288)", "T9 construct": "purchased Cerep; Chantest; DiscoveRx; Multispan; MDS Pharma Services", "assay": "Receptor binding profile of VSN16R", "details": "10µM VSN16R"}, "[17]": {"biological_target": "T10, SK+Ca channel (KCNN2) (Homo sapiens, UniProt Q9H2S1)", "T10 construct": "purchased Cerep; Chantest; DiscoveRx; Multispan; MDS Pharma Services", "assay": "Receptor binding profile of VSN16R"}, "[18]": {"biological_target": "T11, hERG Kv11.1 K+ channel (Homo sapiens, UniProt Q12809)", "T11 construct": "purchased Cerep; Chantest; DiscoveRx; Multispan; MDS Pharma Services", "T11 sequence (Q12809 whole entry)": "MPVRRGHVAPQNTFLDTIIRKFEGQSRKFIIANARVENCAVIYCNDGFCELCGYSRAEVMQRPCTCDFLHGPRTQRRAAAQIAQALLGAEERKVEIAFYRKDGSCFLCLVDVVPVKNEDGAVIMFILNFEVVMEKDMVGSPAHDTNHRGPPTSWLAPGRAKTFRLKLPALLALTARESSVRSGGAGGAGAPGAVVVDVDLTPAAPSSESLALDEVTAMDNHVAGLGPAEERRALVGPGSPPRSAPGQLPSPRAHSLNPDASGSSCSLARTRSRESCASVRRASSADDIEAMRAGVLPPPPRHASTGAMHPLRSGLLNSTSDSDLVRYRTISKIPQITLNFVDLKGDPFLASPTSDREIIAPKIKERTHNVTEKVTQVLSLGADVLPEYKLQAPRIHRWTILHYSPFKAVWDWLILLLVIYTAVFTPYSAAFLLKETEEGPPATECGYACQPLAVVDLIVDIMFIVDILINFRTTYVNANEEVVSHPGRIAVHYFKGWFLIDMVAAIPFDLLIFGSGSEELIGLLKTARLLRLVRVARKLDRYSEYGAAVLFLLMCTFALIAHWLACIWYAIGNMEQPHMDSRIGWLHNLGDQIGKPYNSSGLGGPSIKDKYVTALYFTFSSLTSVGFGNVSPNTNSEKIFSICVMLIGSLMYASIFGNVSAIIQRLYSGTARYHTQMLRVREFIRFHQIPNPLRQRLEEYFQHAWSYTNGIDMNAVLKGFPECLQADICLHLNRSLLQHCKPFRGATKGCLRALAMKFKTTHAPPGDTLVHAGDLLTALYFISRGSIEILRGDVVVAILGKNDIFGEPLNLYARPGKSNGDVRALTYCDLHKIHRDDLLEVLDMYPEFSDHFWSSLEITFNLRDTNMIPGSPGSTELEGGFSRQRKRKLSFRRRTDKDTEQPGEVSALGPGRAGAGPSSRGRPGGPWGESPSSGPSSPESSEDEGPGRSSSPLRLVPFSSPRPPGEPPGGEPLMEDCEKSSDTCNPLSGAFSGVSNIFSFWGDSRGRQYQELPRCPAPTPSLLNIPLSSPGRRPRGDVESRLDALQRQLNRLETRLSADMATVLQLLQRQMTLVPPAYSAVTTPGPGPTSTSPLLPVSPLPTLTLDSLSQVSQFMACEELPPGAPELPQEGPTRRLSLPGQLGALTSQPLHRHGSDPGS", "assay": "Receptor binding profile of VSN16R", "details": "tested to 100 µM"}, "[19]": {"biological_target": "T12, GPR6 (Homo sapiens, UniProt P46095)", "T12 construct": "purchased Cerep; Chantest; DiscoveRx; Multispan; MDS Pharma Services", "T12 sequence (P46095 whole entry)": "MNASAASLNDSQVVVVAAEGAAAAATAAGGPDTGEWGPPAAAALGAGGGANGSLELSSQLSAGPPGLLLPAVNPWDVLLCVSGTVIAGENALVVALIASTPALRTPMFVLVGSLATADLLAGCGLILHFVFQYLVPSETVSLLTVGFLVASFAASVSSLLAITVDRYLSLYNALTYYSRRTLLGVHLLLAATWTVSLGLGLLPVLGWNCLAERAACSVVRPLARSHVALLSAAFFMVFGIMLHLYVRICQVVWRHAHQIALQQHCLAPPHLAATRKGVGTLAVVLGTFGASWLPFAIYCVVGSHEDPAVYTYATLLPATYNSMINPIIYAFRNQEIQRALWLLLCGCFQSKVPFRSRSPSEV", "assay": "Receptor binding profile of VSN16R", "details": "10µM VSN16R"}, "[20]": {"biological_target": "T13, GPR12 (Homo sapiens, UniProt P47775)", "T13 construct": "purchased Cerep; Chantest; DiscoveRx; Multispan; MDS Pharma Services", "assay": "Receptor binding profile of VSN16R", "details": "10µM VSN16R"}, "[21]": {"biological_target": "T14, EDG1 (Homo sapiens, UniProt P21453)", "T14 construct": "purchased Cerep; Chantest; DiscoveRx; Multispan; MDS Pharma Services", "T14 sequence (P21453 whole entry)": "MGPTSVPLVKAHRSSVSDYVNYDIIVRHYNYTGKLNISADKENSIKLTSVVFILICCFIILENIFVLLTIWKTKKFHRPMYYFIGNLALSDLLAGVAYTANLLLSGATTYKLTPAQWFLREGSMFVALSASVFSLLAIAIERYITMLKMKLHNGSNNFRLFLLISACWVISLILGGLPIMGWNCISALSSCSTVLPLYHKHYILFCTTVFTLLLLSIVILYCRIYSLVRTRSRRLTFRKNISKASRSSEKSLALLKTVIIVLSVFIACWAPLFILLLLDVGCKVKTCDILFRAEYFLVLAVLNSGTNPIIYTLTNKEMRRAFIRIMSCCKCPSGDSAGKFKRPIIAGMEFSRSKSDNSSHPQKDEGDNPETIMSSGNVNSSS", "assay": "Receptor binding profile of VSN16R", "details": "10µM VSN16R"}, "[22]": {"biological_target": "T15, EDG5 (Homo sapiens, UniProt O95136)", "T15 construct": "purchased Cerep; Chantest; DiscoveRx; Multispan; MDS Pharma Services", "assay": "Receptor binding profile of VSN16R", "details": "10µM VSN16R"}, "[23]": {"system": "GABAB", "assay": "Receptor binding profile of VSN16R", "parameters": "species or system human", "details": "10µM VSN16R"}, "[24]": {"system": "rat mesenteric artery", "parameters": "method as in Hoi et al., 2007", "details": "ref Hoi et al., 2007; read-out: EC50, vasorelaxation of rat mesenteric arteries; cited from earlier work"}}, "note": "“Also recorded” adds a separate entry of the source. Like-named read-outs stand apart in the source and are kept apart here.", "data": [{"smiles": "C[C@H](CO)NC(=O)c1cccc(/C=C\\CCCC(=O)N(C)C)c1", "note": "[VSN16R]", "values": [{"measurement": "Effect on βγ‐methylene ATP‐induced contractions", "setting": "[1]", "result": "does not inhibit; also recorded: did not affect"}, {"measurement": "half-life at 1 μM", "setting": "[2]", "result": "> 1.67", "unit": "h"}, {"measurement": "Cmax", "setting": "[3]; 1000 mg·kg^−1 p.o., read-out: Plasma level at Cmax", "result": "≤ 368", "unit": "µM"}, {"measurement": "concentration at 30 min", "setting": "[3]; read-out: VSN16R detected in plasma", "result": 15, "unit": "µM"}, {"measurement": "concentration at 30 min", "setting": "[3]; read-out: VSN16R detected in plasma (Mean ± SD)", "result": "4907 ± 32.3", "unit": "ng/mL"}, {"measurement": "IC50", "setting": "[4]", "result": "> 10", "unit": "µM"}, {"measurement": "IC50", "setting": "[5]", "result": "> 10", "unit": "µM"}, {"measurement": "Activity", "setting": "[6]", "result": "Negligible Activity"}, {"measurement": "Activity", "setting": "[7]", "result": "Negligible Activity"}, {"measurement": "Activity", "setting": "[8]", "result": "Negligible Activity"}, {"measurement": "Activity", "setting": "[9]", "result": "Negligible Activity"}, {"measurement": "Activity", "setting": "[10]", "result": "Negligible Activity"}, {"measurement": "Activity", "setting": "[11]", "result": "Negligible Activity"}, {"measurement": "Activity", "setting": "[12]", "result": "Negligible Activity"}, {"measurement": "Activity", "setting": "[13]", "result": "Negligible Activity"}, {"measurement": "Activity", "setting": "[14]", "result": "Negligible Activity"}, {"measurement": "Activity", "setting": "[15]", "result": "Negligible Activity"}, {"measurement": "Activity", "setting": "[16]", "result": "Negligible Activity"}, {"measurement": "Activity", "setting": "[17]; 10µM VSN16R", "result": "Negligible Activity"}, {"measurement": "Block of apamin binding to KCa2.2 channels", "setting": "[17]; transfected cells", "result": "failed to block the binding of apamin"}, {"measurement": "Activity", "setting": "[18]", "result": "Negligible Activity"}, {"measurement": "Activity", "setting": "[19]", "result": "Negligible Activity"}, {"measurement": "Activity", "setting": "[20]", "result": "Negligible Activity"}, {"measurement": "Activity", "setting": "[21]", "result": "Negligible Activity"}, {"measurement": "Activity", "setting": "[22]", "result": "Negligible Activity"}, {"measurement": "Activity", "setting": "[23]", "result": "Negligible Activity"}, {"measurement": "EC50", "setting": "[24]", "result": 0.11, "unit": "µM"}]}]}
